Experimental data reported in patent US20240317777A1, “NOVEL MACROCYCLIC AMINOPYRAZOLE COMPOUNDS AS CDK2 INHIBITORS” (Accutar Biotechnology Inc., priority 2023, published 2024).
Like-named read-outs stand apart in the source and are kept apart here.

Assays:
CDK6-CYCLIN D3 = CDK6-CYCLIN D3 (Homo sapiens, UniProt Q00534); assay: CDK protein kinase inhibition by ADP-Glo assay, CDK6-CYCLIN D3; format: biochemical; conditions: for IC50: ADP-Glo, 1000 μM ATP, read-out: CDK6-CYCLIND3, IC50; for CDK2 Fold selectivity, CDK6: CDK2 versus CDK6
Sequence of CDK6-CYCLIN D3 (Q00534 whole entry): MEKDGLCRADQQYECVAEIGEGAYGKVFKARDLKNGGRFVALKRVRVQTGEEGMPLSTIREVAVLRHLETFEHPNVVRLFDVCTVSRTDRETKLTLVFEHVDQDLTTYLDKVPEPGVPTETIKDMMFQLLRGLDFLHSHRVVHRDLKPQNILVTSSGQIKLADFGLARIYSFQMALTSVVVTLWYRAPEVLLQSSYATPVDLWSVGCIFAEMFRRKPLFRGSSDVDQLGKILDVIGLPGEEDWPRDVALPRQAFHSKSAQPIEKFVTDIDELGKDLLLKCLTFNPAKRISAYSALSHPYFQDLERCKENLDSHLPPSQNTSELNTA
Sequence of CDK6-CYCLIN D3 (P30281 whole entry partner): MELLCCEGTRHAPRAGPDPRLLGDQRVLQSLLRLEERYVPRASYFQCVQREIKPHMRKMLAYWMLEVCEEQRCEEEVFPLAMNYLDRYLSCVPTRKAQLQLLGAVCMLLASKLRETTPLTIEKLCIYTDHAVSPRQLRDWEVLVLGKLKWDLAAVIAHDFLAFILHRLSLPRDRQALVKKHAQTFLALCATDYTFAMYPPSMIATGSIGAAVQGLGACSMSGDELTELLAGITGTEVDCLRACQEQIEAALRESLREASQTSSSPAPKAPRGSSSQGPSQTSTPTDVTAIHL
Method in brief: (§1)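 Compounds were incubated at 22° C with the CDK/cyclin complex, peptide substrate, 1000 μM ATP and 5 mM MgCl2. The reaction was then quenched and ADP formation quantified by luminescence using ADP-Glo reagents.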

[1] = tested on: Phospho-Rb (Ser807/811) in OVCAR3 cells; assay: Phospho-Rb expression inhibition in OVCAR3 cells quantified by In Cell Western; format: cell-based; conditions: Homo sapiens, OVCAR-3, 24 hours, read-out: OVCAR-3 pRb IC50
Method in brief: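 In-cell western: after 24 h compound exposure at 37° C, fixed OVCAR3 cells co-stained for pRb Ser807/811 (800 nm channel) and total Rb (680 nm channel), imaged by LI-COR Odyssey.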

CCNE1-normal SKOV3 cells = assay: Cell growth inhibition of CCNE1-normal SKOV3 cells (CellTiter-Glo); format: cell-based; conditions: Homo sapiens, SK-OV-3, 144 h, 6 days
Method in brief: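 Growth was measured by CellTiter-Glo luminescence after 6 days' compound exposure at 37 °C. Cells were plated one day before dosing at 1000 per well in medium with 10% FBS, and compounds were diluted from DMSO stocks.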

CDK1-CYCLIN B = CDK1-CYCLIN B (Homo sapiens, UniProt P06493); assay: CDK protein kinase inhibition by ADP-Glo assay, CDK1-CYCLIN B; format: biochemical; conditions: for IC50: ADP-Glo, 1000 μM ATP, read-out: CDK1-CYCLINB, IC50; for CDK2 Fold selectivity, CDK1: CDK2 versus CDK1
Sequence of CDK1-CYCLIN B (P06493 whole entry): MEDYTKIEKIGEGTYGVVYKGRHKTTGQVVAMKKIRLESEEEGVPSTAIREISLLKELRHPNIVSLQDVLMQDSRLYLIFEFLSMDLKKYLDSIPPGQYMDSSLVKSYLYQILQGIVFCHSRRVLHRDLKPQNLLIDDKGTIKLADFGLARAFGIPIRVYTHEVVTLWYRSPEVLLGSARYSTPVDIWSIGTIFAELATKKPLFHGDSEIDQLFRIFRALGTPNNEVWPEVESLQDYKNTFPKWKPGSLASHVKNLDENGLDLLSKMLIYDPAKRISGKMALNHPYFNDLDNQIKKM
Sequence of CDK1-CYCLIN B (P14635 whole entry partner): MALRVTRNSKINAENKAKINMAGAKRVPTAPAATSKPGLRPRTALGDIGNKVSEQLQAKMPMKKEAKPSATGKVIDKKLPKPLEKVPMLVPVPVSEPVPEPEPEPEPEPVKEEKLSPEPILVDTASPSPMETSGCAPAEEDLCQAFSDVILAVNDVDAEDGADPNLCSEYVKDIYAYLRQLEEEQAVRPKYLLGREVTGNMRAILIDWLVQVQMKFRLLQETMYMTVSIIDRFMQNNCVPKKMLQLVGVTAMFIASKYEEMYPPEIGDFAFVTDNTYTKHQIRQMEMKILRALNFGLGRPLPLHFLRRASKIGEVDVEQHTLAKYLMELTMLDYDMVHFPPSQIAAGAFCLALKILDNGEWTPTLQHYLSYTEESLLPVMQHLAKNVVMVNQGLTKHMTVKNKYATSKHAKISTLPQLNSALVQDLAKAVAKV
Method in brief: as §1

CDK4-CYCLIN D1 = CDK4-CYCLIN D1 (Homo sapiens, UniProt P11802); assay: CDK protein kinase inhibition by ADP-Glo assay, CDK4-CYCLIN D1; format: biochemical; conditions: for IC50: ADP-Glo, 1000 μM ATP, read-out: CDK4-CYCLIND1, IC50; for CDK2 Fold selectivity, CDK4: CDK2 versus CDK4
Sequence of CDK4-CYCLIN D1 (P11802 whole entry): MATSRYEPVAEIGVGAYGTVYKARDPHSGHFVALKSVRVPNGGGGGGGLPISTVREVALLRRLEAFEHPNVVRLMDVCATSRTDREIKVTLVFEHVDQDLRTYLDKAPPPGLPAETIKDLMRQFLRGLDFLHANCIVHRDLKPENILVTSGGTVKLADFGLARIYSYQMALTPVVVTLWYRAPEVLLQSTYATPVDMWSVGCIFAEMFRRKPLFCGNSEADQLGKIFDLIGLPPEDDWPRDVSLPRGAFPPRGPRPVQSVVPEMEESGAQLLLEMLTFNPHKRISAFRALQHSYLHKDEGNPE
Sequence of CDK4-CYCLIN D1 (P24385 whole entry partner): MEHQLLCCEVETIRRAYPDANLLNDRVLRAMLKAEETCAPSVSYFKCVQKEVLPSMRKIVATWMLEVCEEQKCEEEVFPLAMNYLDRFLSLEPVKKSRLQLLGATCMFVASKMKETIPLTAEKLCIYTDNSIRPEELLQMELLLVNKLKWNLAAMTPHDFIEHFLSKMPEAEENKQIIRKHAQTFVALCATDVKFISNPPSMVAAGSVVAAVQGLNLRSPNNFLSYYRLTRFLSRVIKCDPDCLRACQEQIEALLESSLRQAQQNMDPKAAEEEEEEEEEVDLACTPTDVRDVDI
Method in brief: as §1

CDK2-CYCLIN E1 = CDK2-CYCLIN E1 (Homo sapiens, UniProt P24941); assay: CDK protein kinase inhibition by ADP-Glo assay, CDK2-CYCLIN E1; format: biochemical; conditions: ADP-Glo, 1000 μM ATP, read-out: CDK2-CYCLINE, IC50
Method in brief: as §1

CDK9-CYCLIN T1 = CDK9-CYCLIN T1 (Homo sapiens, UniProt P50750); assay: CDK protein kinase inhibition by ADP-Glo assay, CDK9-CYCLIN T1; format: biochemical; conditions: for IC50: ADP-Glo, 1000 μM ATP; for CDK2 Fold selectivity, CDK9: CDK2 versus CDK9
Sequence of CDK9-CYCLIN T1 (P50750 whole entry): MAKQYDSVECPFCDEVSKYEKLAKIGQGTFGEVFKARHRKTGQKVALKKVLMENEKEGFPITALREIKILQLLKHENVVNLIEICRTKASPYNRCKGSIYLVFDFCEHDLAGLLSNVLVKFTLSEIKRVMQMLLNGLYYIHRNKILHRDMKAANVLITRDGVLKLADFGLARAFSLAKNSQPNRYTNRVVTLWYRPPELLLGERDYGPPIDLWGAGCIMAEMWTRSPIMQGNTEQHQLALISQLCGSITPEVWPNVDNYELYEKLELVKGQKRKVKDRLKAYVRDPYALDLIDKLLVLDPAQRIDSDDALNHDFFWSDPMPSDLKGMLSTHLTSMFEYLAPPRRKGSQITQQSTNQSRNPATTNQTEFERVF
Sequence of CDK9-CYCLIN T1 (O60563 whole entry partner): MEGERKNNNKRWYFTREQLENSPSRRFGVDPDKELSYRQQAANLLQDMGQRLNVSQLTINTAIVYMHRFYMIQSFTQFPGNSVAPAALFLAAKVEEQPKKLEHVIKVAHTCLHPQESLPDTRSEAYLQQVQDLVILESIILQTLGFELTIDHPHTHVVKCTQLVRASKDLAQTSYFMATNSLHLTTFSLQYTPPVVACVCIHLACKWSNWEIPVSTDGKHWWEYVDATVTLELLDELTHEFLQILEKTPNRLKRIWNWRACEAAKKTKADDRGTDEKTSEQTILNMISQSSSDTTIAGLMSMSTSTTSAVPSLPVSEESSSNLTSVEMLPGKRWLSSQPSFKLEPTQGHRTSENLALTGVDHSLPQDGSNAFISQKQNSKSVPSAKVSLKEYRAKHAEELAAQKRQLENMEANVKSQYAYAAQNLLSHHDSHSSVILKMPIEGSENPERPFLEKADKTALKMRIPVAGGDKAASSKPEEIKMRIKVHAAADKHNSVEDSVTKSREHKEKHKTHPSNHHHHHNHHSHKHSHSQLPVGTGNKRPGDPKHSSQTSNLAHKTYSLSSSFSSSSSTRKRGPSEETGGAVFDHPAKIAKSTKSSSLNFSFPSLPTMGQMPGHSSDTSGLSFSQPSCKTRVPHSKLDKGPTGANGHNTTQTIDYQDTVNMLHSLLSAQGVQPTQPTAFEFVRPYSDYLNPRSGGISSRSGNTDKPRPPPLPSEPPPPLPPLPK
Method in brief: as §1

[2] = tested on: CCNE1-amplified OVCAR3 cells; assay: Cell growth inhibition of CCNE1-amplified OVCAR3 cells (CellTiter-Glo); format: cell-based; conditions: Homo sapiens, OVCAR-3, 144 h, 6 days
Method in brief: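 Growth read-out was CellTiter-Glo luminescence, taken after 10 min at room temperature at the end of a 6-day compound exposure at 37 °C. Compounds were diluted from DMSO stocks across various concentrations.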

[3] = Table 25, read-out: CDK9-CYCLINT1, IC50

SMILES | IC50 (CDK6-CYCLIN D3; Table 25) [nM] | CDK2 Fold selectivity, CDK6 (CDK6-CYCLIN D3; Table 26) | IC50 [1] [nM] | IC50 (CCNE1-normal SKOV3 cells) [nM] | IC50 (CDK1-CYCLIN B; Table 25) [nM] | CDK2 Fold selectivity, CDK1 (CDK1-CYCLIN B; Table 26) | IC50 (CDK4-CYCLIN D1; Table 25) [nM] | CDK2 Fold selectivity, CDK4 (CDK4-CYCLIN D1; Table 26) | IC50 (CDK2-CYCLIN E1; Table 25) [nM] | IC50 (CDK9-CYCLIN T1; [3]) [nM] | CDK2 Fold selectivity, CDK9 (CDK9-CYCLIN T1; Table 26) | IC50 [2] [nM] | other results
C[C@H]1CCCC(F)(F)c2cc(ccn2)Nc2cc(n[nH]2)[C@H]2CC[C@H](C2)OC(=O)N1 [Compound 166, (1^1S,1^3R,9S,Z)-5,5-difluoro-9-methyl-2^1H-12-oxa-3,10-diaza-4(4,2)-pyridina-2(3,5)-pyrazola-1(1,3)-cyclopentanacyclododecaphan-11-one] | 10 to 50 | D (D, >20 and ≤50) | 2 to 10 | 250 to 1250 | 10 to 50 | E (E, <20) | 50 to 100 | C (C, >50 and ≤100) | ≤ 10 | 10 to 50 | D (D, >20 and ≤50) | 10 to 50 | IC50 (CDK6-CYCLIN D3; Table 31): 100 to 500 nM; CDK2 Fold selectivity, CDK6 (CDK6-CYCLIN D3; Table 32): D (D, >20 and ≤50); IC50 (CDK1-CYCLIN B; Table 31): 10 to 50 nM; CDK2 Fold selectivity, CDK1 (CDK1-CYCLIN B; Table 32): E (E, <20); IC50 (CDK4-CYCLIN D1; Table 31): 100 to 500 nM; CDK2 Fold selectivity, CDK4 (CDK4-CYCLIN D1; Table 32): D (D, >20 and ≤50); IC50 (CDK2-CYCLIN E1; Table 31): ≤ 10 nM; IC50 (CDK9-CYCLIN T1; Table 31, read-out: CDK9-CYCLINT1, IC50): 10 to 50 nM; CDK2 Fold selectivity, CDK9 (CDK9-CYCLIN T1; Table 32): E (E, <20)
O=C1NC2CC(/C=C/c3cc(ccn3)Nc3cc(n[nH]3)[C@H]3CC[C@H](C3)O1)C2 [Compound 172, (1^1S,1^3R,2^4Z,7^1R,7^3S,5E)-2^1H-10-oxa-3,8-diaza-4(4,2)-pyridina-2(3,5)-pyrazola-1(1,3)-cyclopentana-7(1,3)-cyclobutanacyclodecaphan-5-en-9-one] | 10 to 50 | E (E, <20) | ≤ 2 | 10 to 50 | ≤ 10 | E (E, <20) | ≤ 10 | E (E, <20) | ≤ 10 | ≤ 10 | E (E, <20) | 2 to 10 | 
[2H]C1([2H])CC[C@H](C)NC(=O)O[C@@H]2CC[C@@H](C2)c2cc([nH]n2)Nc2ccnc(c2)O1 [Compound 173, (1^1S,1^3R,9S,Z)-9-methyl-2^1H-5,12-dioxa-3,10-diaza-4(4,2)-pyridina-2(3,5)-pyrazola-1(1,3)-cyclopentanacyclododecaphan-11-one-6,6-d2] |  |  | 10 to 50 | > 1250 |  |  |  |  |  |  |  | 50 to 250 | IC50 (CDK6-CYCLIN D3; Table 27): > 500 nM; CDK2 Fold selectivity, CDK6 (CDK6-CYCLIN D3; Table 28): D (D, >20 and ≤50); IC50 (CDK1-CYCLIN B; Table 27): 100 to 500 nM; CDK2 Fold selectivity, CDK1 (CDK1-CYCLIN B; Table 28): E (E, <20); IC50 (CDK4-CYCLIN D1; Table 27): 100 to 500 nM; CDK2 Fold selectivity, CDK4 (CDK4-CYCLIN D1; Table 28): D (D, >20 and ≤50); IC50 (CDK2-CYCLIN E1; Table 27): 10 to 50 nM; IC50 (CDK9-CYCLIN T1; Table 27, read-out: CDK9-CYCLINT1 IC50): > 500 nM; CDK2 Fold selectivity, CDK9 (CDK9-CYCLIN T1; Table 28): D (D, >20 and ≤50)
